{"source": "patent US9180088B2", "about": "“Fulvestrant formulations” (SCIDOSE, LLC, priority 2008, dated 2015)", "key": {"[1]": {"experiment": "solubility of fulvestrant in solvents", "format": "physicochemical"}, "subplanar paw of the rat": {"test_system": "subplanar paw of the rat", "experiment": "rat paw lick test", "format": "in vivo", "settings": "0.1 ml of solvent system injected on the subplanar paw of the rat", "method": "In this method 0.1 ml of the solvent system is injected on the subplanar paw of the rat and the irritation is measured by the number of time that rat licks its paw over 15 minutes. This is quite quantitative and the number licks correlate to the irritation of the system."}}, "data": [{"compound": "C[C@]12CC[C@@H]3c4ccc(O)cc4C[C@@H](CCCCCCCCC[S+]([O-])CCCC(F)(F)C(F)(F)F)[C@H]3[C@@H]1CC[C@@H]2O", "note": "(stereo partly drawn) [fulvestrant, 7-alpha-[9-(4,4,5,5,5-pentafluoropentylsulphinyl)nonyl]estra-1,3,5-(10)-triene-3,17-beta-diol]", "values": [{"measurement": "solubility", "setting": "[1]; 20 mg/ml Lutrol in PEG 400 (2% Lutrol in PEG 400), organic solvent or mixture, in 20 mg/ml of Lutrol in PEG 400 (2% Lutrol in PEG 400)", "value": 66.7, "unit": "mg/mL"}, {"measurement": "solubility", "setting": "[1]; 20 mg/ml Lutrol in propylene glycol, organic solvent or mixture, in 20 mg/ml of Lutrol in PG", "value": 22.7, "unit": "mg/mL"}, {"measurement": "solubility", "setting": "[1]; 1,4-dioxane, organic solvent or mixture, in 1,4 Dioxan", "value": 833, "unit": "mg/mL"}, {"measurement": "solubility", "setting": "[1]; 10% ethanol/0.9% benzyl alcohol/30% PEG 400 in water (v/v), aqueous with cosolvent or surfactant or cyclodextrin, in 10% Ethanol/0.9% Benzylalcohol/30% PEG 400 in Water (v/v)", "value": 10, "unit": "mg/mL"}, {"measurement": "solubility", "setting": "[1]; 20-50 mg/ml Lutrol in dihydrolipoic acid, organic solvent or mixture, in 20-50 mg/ml Lutrol in dihydrolipoic acid", "value": "> 350", "unit": "mg/mL"}, {"measurement": "solubility", "setting": "[1]; 50% dihydrolipoic acid/50% lipoic acid, organic solvent or mixture, in 50% dihydrolipoic acid/50% lipoic acid", "value": "> 350", "unit": "mg/mL"}, {"measurement": "solubility", "setting": "[1]; Lutrol/PEG400/propylene glycol blends, organic solvent or mixture, in the Lutrol/PEG400/propylene glycol blends", "value": 50, "unit": "mg/mL"}, {"measurement": "solubility", "setting": "[1]; N-methylpyrrolidone, organic solvent or mixture, in N-Methylpyrrolidone", "value": 864, "unit": "mg/mL"}, {"measurement": "solubility", "setting": "[1]; PEG 400 + propylene glycol (1:1), organic solvent or mixture, in PEG 400 + PG (1:1)", "value": 50, "unit": "mg/mL"}, {"measurement": "solubility", "setting": "[1]; PEG-400 (neat), organic solvent or mixture, in PEG-400 (neat)", "value": 22.5, "unit": "mg/mL"}, {"measurement": "solubility", "setting": "[1]; aqueous with cosolvent or surfactant or cyclodextrin, in 10% Ethanol/0.9% Benzylalcohol/30% PEG 400/20 mg per ml Lecithin, in Water", "value": 5, "unit": "mg/mL"}, {"measurement": "solubility", "setting": "[1]; dihydrolipoic acid, organic solvent or mixture, in Dihydrolipoic acid", "value": "> 450", "unit": "mg/mL"}, {"measurement": "solubility", "setting": "[1]; ethyl acetate, organic solvent or mixture, in Ethyl acetate", "value": 7.8, "unit": "mg/mL"}, {"measurement": "solubility", "setting": "[1]; glycofurol, organic solvent or mixture, in Glycofurol", "value": 400, "unit": "mg/mL"}, {"measurement": "solubility of fulvestrant", "setting": "[1]; in 0.9% Benzyl alcohol in Water", "value": "Insoluble"}, {"measurement": "solubility of fulvestrant", "setting": "[1]; in 2% Benzyl alcohol in Water", "value": "Insoluble"}, {"measurement": "solubility of fulvestrant", "setting": "[1]; in 10% Ethanol", "value": "Insoluble"}, {"measurement": "solubility of fulvestrant", "setting": "[1]; in 10% Ethanol (in water) + PEG 400 (1:1)", "value": "Insoluble"}, {"measurement": "solubility of fulvestrant", "setting": "[1]; in 30% Ethanol (in water)", "value": "Insoluble"}, {"measurement": "solubility of fulvestrant", "setting": "[1]; in 50% Ethanol (in water)", "value": "Insoluble"}, {"measurement": "solubility of fulvestrant", "setting": "[1]; in Aq.PVP K-30 solution (40 mg in 2 ml distil water)", "value": "Insoluble"}, {"measurement": "solubility of fulvestrant", "setting": "[1]; in Cetylalcohol", "value": 20, "unit": "mg/1 g"}, {"measurement": "solubility of fulvestrant", "setting": "[1]; in Fat emulsion", "value": "Insoluble"}, {"measurement": "solubility of fulvestrant", "setting": "[1]; in Hydroxy Ethyl Starch (10%)", "value": "Insoluble"}, {"measurement": "solubility of fulvestrant", "setting": "[1]; in Lauryl macrogol - 32 glyceride (Gelucire 44/14 by Gattefosse)", "value": "Insoluble"}, {"measurement": "solubility of fulvestrant", "setting": "[1]; in Lecithin (1%)", "value": "Insoluble"}, {"measurement": "solubility of fulvestrant", "setting": "[1]; in Peanut Oil", "value": "Insoluble"}, {"measurement": "solubility of fulvestrant", "setting": "[1]; in Poloxamer(Lutrol f-68) (2% sol in water)", "value": "Insoluble"}, {"measurement": "solubility of fulvestrant", "setting": "[1]; in Sodium Citrate (30 Mmol)", "value": "Insoluble"}, {"measurement": "solubility of fulvestrant", "setting": "[1]; in TPGS 1000", "value": "Insoluble"}, {"measurement": "solubility of fulvestrant", "setting": "[1]; in Tween 20 (1%)", "value": "Insoluble"}, {"measurement": "solubility of fulvestrant", "setting": "[1]; in Tween 80 (1%)", "value": "Insoluble"}, {"measurement": "solubility", "setting": "[1]; organic solvent or mixture, in 0.7 ml of (20 mg/ml of Lutrol in PEG 400) + 0.3 ml of Propylene Glycol", "value": 50, "unit": "mg/mL"}, {"measurement": "solubility", "setting": "[1]; organic solvent or mixture, in 0.8 ml of (20 mg/ml of Lutrol in PEG 400) + 0.2 ml of Propylene Glycol", "value": 50, "unit": "mg/mL"}, {"measurement": "solubility", "setting": "[1]; organic solvent or mixture, in 10% Ethanol/0.9% Benzylalcohol in PEG 400 (V/V, QS with PEG 400)", "value": 10, "unit": "mg/mL"}, {"measurement": "solubility", "setting": "[1]; propylene glycol (neat), organic solvent or mixture, in Propylene Glycol (neat)", "value": 4, "unit": "mg/mL"}, {"measurement": "solubility", "setting": "[1]; t-butanol, organic solvent or mixture, in T-butanol", "value": 194, "unit": "mg/mL"}]}, {"compound": "Glycofurol [Test # 02]", "values": [{"measurement": "IRRITABILITY (rating)", "setting": "subplanar paw of the rat", "value": "No Irritation"}, {"measurement": "number of times rat licks its paw in first 15 minutes", "setting": "subplanar paw of the rat; 15 minutes", "value": "Zero lick in first 15 minutes"}]}]}
